Laboratory results taken from patent US4203980A, “Benzylpyrimidine derivatives” (Hoffmann-La Roche Inc., priority 1977, dated 1980).
pIC50: −log10 of the molar value.

These compounds were tested against DHFR (E. coli) (Escherichia coli, UniProt P0ABQ4) (assay: 50% inhibition of the bacterial dihydrofolic acid reductase (DHFR), E. coli).
Assay type: biochemical
Description: The compounds of formula I have antibacterial activity. More specifically, the compounds of formula I inhibit the bacterial dihydrofolic acid reductase (DHFR) and, moreover, potentiate the activity of sulfonamides and other dihydrofolic acid synthetase inhibitors. Exemplary of the sulfonamides which are potentiated by the compounds provided by the present invention are sulfadiazine, sulfadimethoxine, sulfadoxine, sulfamethoxazole, sulfisoxazole, sulfamoxole, 3-sulfanilamido-4,5-dimethylisoxazole, sulfalene, sulfamerazine, sulfameter, sulfamethazine and 6-methoxy-4-sulfanilamido-pyrimidine. […] Quantitatively, however, compared with known compounds, the compounds of formula I of the present invention are characterized by lower 50% inhibitory concentrations of the bacterial DHFR, for example, in the case of E. coli, and by substantially higher Q-values, that is 50% inhibition of the DHFR in the case of rats/50% inhibition of the DHFR in the case of E. coli, which represents a measurement of the selectivity of the inhibition of the bacterial DHFR.
With `C=C(C)c1c(OCC)cc(Cc2cnc(N)nc2N)cc1OCC` [Compound 1, 2,4-diamino-5-(3,5-diethoxy-4-isopropenylbenzyl)-pyrimidine] the pIC50 was 8.66. With `C=C(C)c1c(OC)cc(Cc2cnc(N)nc2N)cc1OC` [Compound 2, 2,4-diamino-5-(4-isopropenyl-3,5-dimethoxybenzyl)-pyrimidine] the pIC50 was 8.47. Work on `C=C(C)c1c(OC)cc(Cc2cnc(N)nc2N)cc1OCC` [Compound 3, 2,4-diamino-5-(3-ethoxy-4-isopropenyl-5-methoxybenzyl)-pyrimidine] yielded a pIC50 of 8.49.
